Columns and labels:
[1] = system: tonsil-derived human MSCs (hMSC-T, passage 6); experiment: Antioxidant activity (ROS assay) upon NAC pretreatment followed by PYBR treatment; type: cell-based; conditions: NAC pretreatment 10 mM and 20 mM for 24 hours, then PYBR 5, 10, 20 μg/mL for 24 hours; FIG. 5
Procedure: In order to evaluate antioxidant activity upon NAC treatment, tonsil-derived human MSCs (hMSC-T, passage 6) were seeded in a culture medium at a density of 1×10^4 cells/well. On the following day, NAC was treated at concentrations of 10 mM and 20 mM for 24 hours. Thereafter, the cells were washed with PBS and the medium was replaced, followed by treatment with PYBR at concentrations of 5, 10, and 20 μg/mL. After 24 hours, the cells were washed three times with PBS and incubated in 100 μL of ROS working solution at 37° C. for 30 minutes in the dark. Absorbance was then measured at 488/525 nm (FIG. 4). A group not treated with NAC was used as a positive control.

[2] = system: tonsil-derived human MSCs; experiment: Cell viability after NAC pretreatment for 24 hours (determination of NAC pretreatment concentration); conditions: NAC 10 mM, FIG. 1
Procedure: In order to determine the concentration of NAC for pretreatment of tonsil-derived human MSCs, the tonsil-derived human MSCs were pretreated with NAC prepared in Example 1 at concentrations of 2, 4, 6, 8, 10, 15, and 100 mM for 24 hours, and then cell viability was evaluated.

[3] = system: tonsil-derived human MSCs (hMSC-T, passage 6); experiment: Cell viability (WST, absorbance at 450 nm) upon NAC pretreatment followed by PYBR treatment; type: cell-based; conditions: NAC pretreatment 10 mM and 20 mM for 24 hours, then PYBR 5, 10, 20 μg/mL for 24 hours; FIG. 3
Procedure: In order to evaluate cell viability upon NAC treatment, tonsil-derived human MSCs (hMSC-T, passage 6) were seeded in a culture medium at a density of 1×10^3 cells/well. On the following day, NAC was treated at concentrations of 10 mM and 20 mM for 24 hours. Thereafter, the cells were washed with PBS and the medium was replaced, followed by treatment with PYBR at concentrations of 5, 10, and 20 μg/mL. After 24 hours, the cells were washed three times with PBS and transferred to fresh medium (100 μL) containing 10 μL of WST solution, and incubated at 37° C. for 2 hours in the dark. Absorbance at 450 nm was then measured to evaluate cell viability (FIG. 2). A group not treated with NAC was used as a positive control.

SMILES: CC(=O)NC(CS)C(=O)O (stereo not drawn) [NAC, 2-acetamido-3-sulfanylpropanoic acid]
- ROS levels after PYBR treatment [1]: significantly reduced ROS levels
- cytotoxicity (cell viability) [2]: no cytotoxicity was observed
- cell viability after PYBR treatment [3]: significantly restored cell viability

From patent US20260167935A1, “METHOD FOR CULTURING TONSIL-DERIVED MESENCHYMAL STEM CELLS USING N-ACETYLCYSTEINE (NAC)” (priority 2023, published 2026)
